# Assay results: patent EP2623098B1, “Amide Amino Acid Esters of Nonsteroidal Anti-Inflammatory Drugs (NSAIDs) as Potent Inhibitors of Tumor Cell Growth” (King Saud University, priority 2012, dated 2013)
# Test system: HT-29 human colon adenocarcinoma cells
# Experiment: Tumor cell growth inhibition assay (Cell Titer Glo, cell viability), HT-29
# Type: cell-based
# Conditions: HT-29 cells, 72 hours treatment
# Protocol: The human colon adenocarcinoma cell lines were obtained from ATCC and grown under standard cell culture conditions in RPMI 1640 medium containing 5% fetal bovine serum (FBS) at 37°C in a humidified atmosphere with 5% CO2.
# Tissue culture treated 96-well microtiter plates were seeded at a density of 5,000 cells/well. For growth inhibition assays, cells were incubated at 37°C for 18-24 hours, treated with the specified compound or vehicle (0.1% DMSO final) control, and incubated at 37°C an additional 72 hours. The effect of treatment on cell viability was determined using the luminescent Cell Titer Glo Assay (Promega).
# HT-29 human colon adenocarcinoma cells were treated with compounds of the invention and grown under standard cell culture conditions. […]
row,IC50 [µM],Structure (SMILES)
1,121,COC(=O)CC(NC(=O)C(C)c1ccc2cc(OC)ccc2c1)C(=O)OC (centres unmarked) [IX]
2,34.5,COC(=O)C(CC(C)C)NC(=O)C(C)c1ccc2cc(OC)ccc2c1 (centres unmarked) [VII]

# The next lines start with the compound.
row,Structure (SMILES),IC50 [µM]
1,CCOC(=O)C(NC(=O)C(C)c1ccc2cc(OC)ccc2c1)C(C)C (centres unmarked) [XI],29.4
2,CCOC(=O)C(CCSC)NC(=O)C(C)c1ccc2cc(OC)ccc2c1 (centres unmarked) [XII],49.3
3,CCOC(=O)CCNC(=O)C(C)c1ccc2cc(OC)ccc2c1 (centres unmarked) [IV],123
